Data taken from US10343992B2, “1-cyano-pyrrolidine compounds as USP30 inhibitors” (MISSION THERAPEUTICS LIMITED, priority 2015, dated 2019).

target: USP30 (Homo sapiens (Human), UniProt Q70CQ3); assay: USP30 biochemical FP or FI IC50 assay; details: read-out: IC50 range
Procedure, shortened: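 Human USP30 preincubated 30 min at room temperature with compound (8-point series, 100 µM top final) in Tris pH 7.5, Tween 20, BSA, 5 mM β-mercaptoethanol, in duplicate. FP format: 50 nM TAMRA-peptide–isopeptide-ubiquitin substrate, ex 540/em 590. FI format: 100 nM ubiquitin-rhodamine 110, ex 487/em 535. Both read at 0 and after 2 h at room temperature.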

Sequence of USP30 (Q70CQ3 57-517): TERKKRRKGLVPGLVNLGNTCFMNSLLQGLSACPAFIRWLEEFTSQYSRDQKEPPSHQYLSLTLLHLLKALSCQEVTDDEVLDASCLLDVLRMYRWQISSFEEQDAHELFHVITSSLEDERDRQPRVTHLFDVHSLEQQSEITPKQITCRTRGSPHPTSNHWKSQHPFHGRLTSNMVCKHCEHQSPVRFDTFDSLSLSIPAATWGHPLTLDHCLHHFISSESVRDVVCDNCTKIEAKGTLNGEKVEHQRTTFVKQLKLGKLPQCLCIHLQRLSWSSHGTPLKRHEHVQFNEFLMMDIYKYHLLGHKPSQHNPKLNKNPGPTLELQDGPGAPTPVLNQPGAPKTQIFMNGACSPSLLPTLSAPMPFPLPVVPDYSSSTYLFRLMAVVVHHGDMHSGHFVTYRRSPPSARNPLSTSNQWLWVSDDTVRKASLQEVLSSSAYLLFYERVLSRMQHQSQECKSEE

**Q.** For COc1cccc(-c2cc(C(=O)N[C@@H]3CCN(C#N)C3)on2)c1 [Example 221, (R)-N-(1-cyanopyrrolidin-3-yl)-3-(3-methoxyphenyl)isoxazole-5-carboxamide], which IC50 is on record?
**A.** The IC50 was less than 100 nM.

**Q.** N#CN1CCC(NC(=O)c2cc(-c3cccc(Cl)c3)no2)C1 (racemic) [Example 8, 3-(3-chlorophenyl)-N-(1-cyanopyrrolidin-3-yl)isoxazole-5-carboxamide] was tested. Which IC50 did it give?
**A.** Its IC50 is less than 100 nM.

**Q.** CN(C(=O)Nc1cccc(Oc2ccccc2)c1)C1CCN(C#N)C1 (stereo not drawn) [Example 258, 1-(1-cyanopyrrolidin-3-yl)-1-methyl-3-(3-phenoxyphenyl)urea] was tested. Which IC50 did it give?
**A.** Its IC50 is less than 100 nM.

**Q.** Which IC50 does the source give for N#CN1C[C@H]2CCN(C(=O)c3ccc(-c4ccccc4)[nH]c3=O)[C@H]2C1 [Example 61, (3aR,6aR)-1-(2-oxo-6-phenyl-1,2-dihydropyridine-3-carbonyl)hexahydropyrrolo[3,4-b]pyrrole-5(1H)-carbonitrile] here?
**A.** Its IC50 is 100 to 1000 nM.

**Q.** With N#CN1CC[C@@H](NC(=O)c2cc(-c3cccnc3)[nH]n2)C1 [Example 103, (R)-N-(1-cyanopyrrolidin-3-yl)-5-(pyridin-3-yl)-1H-pyrazole-3-carboxamide] as the compound, how does the IC50 read?
**A.** The IC50 was 100 to 1000 nM.

**Q.** For C[C@@H]1[C@H](NC(=O)c2ccc(-c3ccc(F)cc3)cn2)CCN1C#N (racemic) [Example 174, N-((cis)-1-cyano-2-methylpyrrolidin-3-yl)-5-(4-fluorophenyl)picolinamide], which IC50 is on record?
**A.** The IC50 was 100 to 1000 nM.

**Q.** For Cc1nccc(-c2ccc(C(=O)N[C@@H]3CCN(C#N)C3)c(F)c2)n1 [Example 105, (R)-N-(1-cyanopyrrolidin-3-yl)-2-fluoro-4-(2-methylpyrimidin-4-yl)benzamide], which IC50 is on record?
**A.** The IC50 was less than 100 nM.

**Q.** Which IC50 does the source give for N#CN1CCC(NC(=O)c2ccc(N3CCN(c4ccc(F)cc4F)CC3)nc2)C1 (racemic) [Example 19, N-(1-cyanopyrrolidin-3-yl)-6-(4-(2,4-difluorophenyl)piperazin-1-yl)nicotinamide] here?
**A.** The IC50 was 100 to 1000 nM.

**Q.** N#CN1CC[C@@H](NC(=O)c2cc(-c3ccccn3)ccn2)C1 [Example 217, (R)-N-(1-cyanopyrrolidin-3-yl)-[2, 4′-bipyridine]-2′-carboxamide] was tested. Which IC50 did it give?
**A.** The IC50 was 100 to 1000 nM.

**Q.** With CN(Cc1ccccc1)c1ccc(C(=O)NC2CCN(C#N)C2)cn1 (stereo not drawn) [Example 4, 6-(benzyl(methyl)amino)-N-(1-cyanopyrrolidin-3-yl)nicotinamide] as the compound, how does the IC50 read?
**A.** Its IC50 is 100 to 1000 nM.

**Q.** How did the IC50 turn out when COc1cc(C(=O)N[C@@H]2CCN(C#N)C2)ccc1Nc1ncccn1 [Example 147, (R)-N-(1-cyanopyrrolidin-3-yl)-3-methoxy-4-(pyrimidin-2-ylamino)benzamide] was run?
**A.** Its IC50 is 100 to 1000 nM.

**Q.** With N#CN1CC[C@@H](NC(=O)c2cc(-c3cccnc3)no2)C1 [Example 65, (R)-N-(1-cyanopyrrolidin-3-yl)-3-(pyridin-3-yl)isoxazole-5-carboxamide] as the compound, how does the IC50 read?
**A.** The IC50 was 100 to 1000 nM.

**Q.** Which IC50 does the source give for N#CN1CCCC(NC(=O)c2cccc(-c3ccccc3)c2)C1 (stereo not drawn) [Example 248, N-(1-cyanopiperidin-3-yl)-[1,1′-biphenyl]-3-carboxamide] here?
**A.** Its IC50 is 1000 to 10000 nM.

**Q.** Which IC50 does the source give for COc1ccc(-c2cc(C(=O)N[C@@H]3CCN(C#N)C3)on2)cc1OC [Example 220, (R)-N-(1-cyanopyrrolidin-3-yl)-3-(3,4-dimethoxyphenyl)isoxazole-5-carboxamide] here?
**A.** The IC50 was 100 to 1000 nM.

**Q.** With N#CN1CC[C@@H](NC(=O)c2ccc(-c3ccnnc3)cc2F)C1 [Example 152, (R)-N-(1-cyanopyrrolidin-3-yl)-2-fluoro-4-(pyridazin-4-yl)benzamide] as the compound, how does the IC50 read?
**A.** The IC50 was 100 to 1000 nM.

**Q.** For Cn1cc(-c2ccc3cc(C(=O)N[C@@H]4CCN(C#N)C4)n(C)c3c2)cn1 [Example 229, (R)-N-(1-cyanopyrrolidin-3-yl)-1-methyl-6-(1-methyl-1H-pyrazol-4-yl)-1H-indole-2-carboxamide], which IC50 is on record?
**A.** The IC50 was 100 to 1000 nM.

**Q.** CCN(C(=O)N1CC(c2ccccc2)C1)[C@@H]1CCN(C#N)C1 [Example 207, (R)-N-(1-cyanopyrrolidin-3-yl)-N-ethyl-3-phenylazetidine-1-carboxamide] was tested. Which IC50 did it give?
**A.** The IC50 was 100 to 1000 nM.

**Q.** Which IC50 does the source give for N#CN1CC[C@@H](NC(=O)c2cc(-c3ccncc3)no2)C1 [Example 64, (R)—N-(1-cyanopyrrolidin-3-yl)-3-(pyridin-4-yl)isoxazole-5-carboxamide] here?
**A.** The IC50 was 100 to 1000 nM.

**Q.** With Cc1noc(C)c1-c1ccc2[nH]c(C(=O)N(C)[C@@H]3CCN(C#N)C3)nc2c1 [Example 158, (R)-N-(1-cyanopyrrolidin-3-yl)-6-(3,5-dimethylisoxazol-4-yl)-N-methyl-1H-benzo[d]imidazole-2-carboxamide] as the compound, how does the IC50 read?
**A.** Its IC50 is 100 to 1000 nM.

**Q.** For CN(C(=O)Nc1ccc(-c2cnn(C)c2)cc1)[C@@H]1CCN(C#N)C1 [Example 194, (R)-1-(1-cyanopyrrolidin-3-yl)-1-methyl-3-(4-(1-methyl-1H-pyrazol-4-yl)phenyl)urea], which IC50 is on record?
**A.** Its IC50 is 100 to 1000 nM.

**Q.** How did the IC50 turn out when N#Cc1cccc(-c2ccc3nc(C(=O)N[C@@H]4CCN(C#N)C4)cn3c2)c1 [Example 116, (R)-6-(3-cyanophenyl)-N-(1-cyanopyrrolidin-3-yl)imidazo[1,2-a]pyridine-2-carboxamide] was run?
**A.** Its IC50 is less than 100 nM.

**Q.** N#CN1CC[C@@H](NC(=O)c2cc(F)c(N3CCCC3)cc2F)C1 [Example 145, (R)-N-(1-cyanopyrrolidin-3-yl)-2,5-difluoro-4-(pyrrolidin-1-yl)benzamide] was tested. Which IC50 did it give?
**A.** The IC50 was less than 100 nM.

**Q.** Cn1ncc2cc(-c3cnc(C(=O)N[C@@H]4CCN(C#N)C4)c(F)c3)ccc21 [Example 120, (R)-N-(1-cyanopyrrolidin-3-yl)-3-fluoro-5-(1-methyl-1H-indazol-5-yl)picolinamide] was tested. Which IC50 did it give?
**A.** The IC50 was less than 100 nM.

**Q.** N#CN1CC[C@@H](NC(=O)c2ccnc(N3CCc4ccccc4C3)c2)C1 [Example 74, (R)—N-(1-cyanopyrrolidin-3-yl)-2-(3,4-dihydroisoquinolin-2(1H)-yl)isonicotinamide] was tested. Which IC50 did it give?
**A.** The IC50 was 100 to 1000 nM.

**Q.** N#CN1CC[C@@H](NC(=O)c2cccc(-c3ccccc3)n2)C1 [Example 29, (R)-N-(1-cyanopyrrolidin-3-yl)-6-phenylpicolinamide] was tested. Which IC50 did it give?
**A.** The IC50 was 100 to 1000 nM.

**Q.** With N#CN1CC[C@@H](NC(=O)c2cc(-c3ccccc3)[nH]n2)C1 [Example 102, (R)-N-(1-cyanopyrrolidin-3-yl)-phenyl-1H-pyrazole-3-carboxamide] as the compound, how does the IC50 read?
**A.** The IC50 was less than 100 nM.

**Q.** For CN(C(=O)N1CC(Oc2ccccc2)C1)[C@@H]1CCN(C#N)C1 [Example 89, (R)—N-(1-cyanopyrrolidin-3-yl)-N-methyl-3-phenoxyazetidine-1-carboxamide], which IC50 is on record?
**A.** The IC50 was 100 to 1000 nM.

**Q.** With Cc1nn(C)cc1-c1ccc2nc(C(=O)N[C@@H]3CCN(C#N)C3)cn2c1 [Example 125, (R)-N-(1-cyanopyrrolidin-3-yl)-6-(1,3-dimethyl-1H-pyrazol-4-yl)imidazo[1,2-a]pyridine-2-carboxamide] as the compound, how does the IC50 read?
**A.** Its IC50 is 100 to 1000 nM.

**Q.** With N#CN1CCC(NC(=O)c2ccc(-c3cccc(Cl)c3)cc2)C1 (racemic) [Example 13, 3′-chloro-N-(1-cyanopyrrolidin-3-yl)-[1,1′-biphenyl]-4-carboxamide] as the compound, how does the IC50 read?
**A.** The IC50 was less than 100 nM.

**Q.** With CCn1cc(-c2cnc(C(=O)N[C@@H]3CCN(C#N)C3)cc2C)cn1 [Example 132, (R)-N-(1-cyanopyrrolidin-3-yl)-5-(1-ethyl-1H-pyrazol-4-yl)-4-methylpicolinamide] as the compound, how does the IC50 read?
**A.** Its IC50 is 100 to 1000 nM.

**Q.** Which IC50 does the source give for Cc1nn(C)cc1-c1ccc(C(=O)N[C@@H]2CCN(C#N)C2)cc1F [Example 79, (R)-N-(1-cyanopyrrolidin-3-yl)-4-(1,3-dimethyl-1H-pyrazol-4-yl)-3-fluorobenzamide] here?
**A.** Its IC50 is less than 100 nM.

**Q.** Which IC50 does the source give for N#CN1CC[C@@H](NC(=O)N2CCC(c3ccccc3)C2)C1 (stereo partly drawn) [Example 46, N-((R)-1-cyanopyrrolidin-3-yl)-3-phenylpyrrolidine-1-carboxamide] here?
**A.** Its IC50 is 100 to 1000 nM.

**Q.** Which IC50 does the source give for N#CN1CC[C@@H](NC(=O)c2ccc3c(c2)OCCN3c2ncccn2)C1 [Example 211, (R)-N-(1-cyanopyrrolidin-3-yl)-4-(pyrimidin-2-yl)-3,4-dihydro-2H-benzo[b][1, 4]oxazine-7-carboxamide] here?
**A.** Its IC50 is 100 to 1000 nM.

**Q.** For N#CN1CC[C@@H](NC(=O)c2n[nH]c3ccccc23)C1 [Example 101, (R)-N-(1-cyanopyrrolidin-3-yl)-1H-indazole-3-carboxamide], which IC50 is on record?
**A.** The IC50 was 100 to 1000 nM.

**Q.** For N#CN1CCC(NC(=O)c2ccc(N3CCC(c4ccncc4)CC3)nc2)C1 (racemic) [Example 23, N-(1-cyanopyrrolidin-3-yl)-6-(4-(pyridin-4-yl)piperidin-1-yl)nicotinamide], which IC50 is on record?
**A.** The IC50 was 100 to 1000 nM.

**Q.** With N#CN1CC[C@@H](NC(=O)c2cc(-c3ccncc3)on2)C1 [Example 34, (R)-N-(1-cyanopyrrolidin-3-yl)-5-(pyridin-4-yl)isoxazole-3-carboxamide] as the compound, how does the IC50 read?
**A.** The IC50 was 100 to 1000 nM.

**Q.** For CO[C@@H]1CCN(c2ccc(C(=O)N[C@H]3CN(C#N)C[C@@H]3C)c(F)c2)C1 (racemic) [Example 92, N-((trans)-1-cyano-4-methylpyrrolidin-3-yl)-2-fluoro-4-((R)-3-methoxypyrrolidin-1-yl)benzamide], which IC50 is on record?
**A.** The IC50 was 100 to 1000 nM.

**Q.** N#CN1CCCC(NC(=O)Nc2cccc(Oc3ccccc3)c2)C1 (stereo not drawn) [Example 250, 1-(1-cyanopiperidin-3-yl)-3-(3-phenoxyphenyl)urea] was tested. Which IC50 did it give?
**A.** Its IC50 is 1000 to 10000 nM.

**Q.** Which IC50 does the source give for Cn1cc(-c2cc(C(=O)N3CC[C@@H]4CN(C#N)C[C@@H]43)ccc2F)cn1 (racemic) [Example 58, rac-(3aR,6aR)-1-(4-fluoro-3-(1-methyl-1H-pyrazol-4-yl)benzoyl)hexahydropyrrolo[3,4-b]pyrrole-5(1H)-carbonitrile] here?
**A.** Its IC50 is 100 to 1000 nM.

**Q.** For Cc1cc(-c2ccc(C(=O)N[C@@H]3CCN(C#N)C3)c(F)c2)nc(C)n1 [Example 181, (R)-N-(1-cyanopyrrolidin-3-yl)-4-(2,6-dimethylpyrimidin-4-yl)-2-fluorobenzamide], which IC50 is on record?
**A.** The IC50 was less than 100 nM.

**Q.** With COc1ccnc(Nc2ccc(C(=O)N[C@@H]3CCN(C#N)C3)c(F)c2)n1 [Example 149, (R)-N-(1-cyanopyrrolidin-3-yl)-2-fluoro-4-((4-methoxypyrimidin-2-yl)amino)benzamide] as the compound, how does the IC50 read?
**A.** The IC50 was less than 100 nM.

**Q.** With Cc1noc(C)c1-c1ccc(C(=O)NC2CCN(C#N)C2)cc1 (racemic) [Example 12, N-(1-cyanopyrrolidin-3-yl)-4-(3,5-dimethylisoxazol-4-yl)benzamide] as the compound, how does the IC50 read?
**A.** Its IC50 is 100 to 1000 nM.
